Reference: BindingDB's records for doi:10.1021/jm3004174 (Taiho Pharmaceutical, 2012)

experiment: Inhibition of dUTPase in human HeLa S3 cells assessed as potentiation of 1 uM FdUrd-induced decrease in cell density incubated for 24 hrs by crystal violet assay

EC50 [nM] | Compound
70 | CC[C@@](O)(Cn1nncc1CCCCn1ccc(=O)[nH]c1=O)c1ccc(F)c(OCC2CC2)c1
50 | CC[C@@H](Cn1nncc1CCCCn1ccc(=O)[nH]c1=O)c1cccc(OCC2CC2)c1
260 | O=c1ccn(CCCCc2cnnn2CCc2cccc(OCC3CC3)c2)c(=O)[nH]1
1100 | O=c1ccn(CCCc2cnnn2CC(c2ccccc2)c2ccccc2)c(=O)[nH]1
